According to ChEMBL document CHEMBL1201861, “Genomics of Drug Sensitity in Cancer screening data, Wellcome Trust Sanger Institute”:

Experiments:
Experiment in all cases: cells
Assay type in all cases: functional, cell-based
Details in all cases: Homo sapiens
COLO-741 = test system: COLO-741
Description: SANGER: Inhibition of human COLO-741 cell growth in a cell viability assay.

Calu-3 = test system: Calu-3;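 further: growth inhibition of human Calu-3 cells, determined with a cell viability assay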
Description: SANGER: Inhibition of human Calu-3 cell growth in a cell viability assay.

G-361 = test system: G-361
GAMG = test system: GAMG;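 further: cell growth inhibition measured by a viability assay in the GAMG human cell line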
Description: SANGER: Inhibition of human GAMG cell growth in a cell viability assay.

H4 = test system: H4
Description: SANGER: Inhibition of human H4 cell growth in a cell viability assay.

HCC1806 = test system: HCC1806;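 further: growth inhibition of the cancer cell line, determined with a cell viability assay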
Description: SANGER: Inhibition of human HCC1806 cell growth in a cell viability assay.

HCC1937 = test system: HCC1937;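 further: growth inhibition measured with a cell viability read-out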
Description: SANGER: Inhibition of human HCC1937 cell growth in a cell viability assay.

HGC-27 = test system: HGC-27;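 further: growth inhibition of human HGC-27 cells, read out in a cell viability assay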
Description: SANGER: Inhibition of human HGC-27 cell growth in a cell viability assay.

HO-1-N-1 = test system: HO-1-N-1;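 further: growth inhibition of human HO-1-N-1 cells, read out with a cell viability assay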
Description: SANGER: Inhibition of human HO-1-N-1 cell growth in a cell viability assay.

J82 = test system: J82;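 further: growth inhibition of J82 cells, read out with a cell viability assay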
Description: SANGER: Inhibition of human J82 cell growth in a cell viability assay.

KU-19-19 = test system: KU-19-19
Description: SANGER: Inhibition of human KU-19-19 cell growth in a cell viability assay.

KYSE-150 cell line = test system: KYSE-150 cell line;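 further: growth inhibition of human KYSE-150 cells, read out with a cell viability assay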
Description: SANGER: Inhibition of human KYSE-150 cell growth in a cell viability assay.

KYSE-510 = test system: KYSE-510;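 further: cell viability readout used to measure how strongly growth of the cell line is suppressed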
Description: SANGER: Inhibition of human KYSE-510 cell growth in a cell viability assay.

LCLC-97TM1 = test system: LCLC-97TM1;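 further: cell viability assay measuring growth inhibition of human LCLC-97TM1 cells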
Description: SANGER: Inhibition of human LCLC-97TM1 cell growth in a cell viability assay.

LN-405 = test system: LN-405
Description: SANGER: Inhibition of human LN-405 cell growth in a cell viability assay.

MDA-MB-231 = test system: MDA-MB-231
Description: SANGER: Inhibition of human MDA-MB-231 cell growth in a cell viability assay.

MDA-MB-453 = test system: MDA-MB-453
Description: SANGER: Inhibition of human MDA-MB-453 cell growth in a cell viability assay.

MKN-7 = test system: MKN-7;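 further: growth inhibition of MKN-7 cells, read out with a cell viability assay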
Description: SANGER: Inhibition of human MKN7 cell growth in a cell viability assay.

NB12 = test system: NB12;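 further: growth inhibition of human NB12 cells, read out by a cell viability assay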
Description: SANGER: Inhibition of human NB12 cell growth in a cell viability assay.

NCI-H1437 = test system: NCI-H1437;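 further: growth inhibition of human NCI-H1437 cells, read out by a cell viability assay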
Description: SANGER: Inhibition of human NCI-H1437 cell growth in a cell viability assay.

NCI-H1623 = test system: NCI-H1623;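 further: cell viability assay used as the read-out for growth inhibition of NCI-H1623 cells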
Description: SANGER: Inhibition of human NCI-H1623 cell growth in a cell viability assay.

NCI-H1693 = test system: NCI-H1693;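 further: growth inhibition of the human cell line, read out with a cell viability assay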
Description: SANGER: Inhibition of human NCI-H1693 cell growth in a cell viability assay.

NCI-H2452 = test system: NCI-H2452;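 further: growth inhibition of NCI-H2452 cells, read out with a cell viability assay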
Description: SANGER: Inhibition of human NCI-H2452 cell growth in a cell viability assay.

NCI-H292 = test system: NCI-H292;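 further: growth inhibition of NCI-H292 cells, read out with a cell viability assay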
Description: SANGER: Inhibition of human NCI-H292 cell growth in a cell viability assay.

NCI-H520 = test system: NCI-H520;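 further: growth inhibition of NCI-H520 cells, measured by a cell viability assay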
Description: SANGER: Inhibition of human NCI-H520 cell growth in a cell viability assay.

NCI-H661 = test system: NCI-H661;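 further: cell viability assay read-out, IC50 being the concentration that inhibits growth of the cells by half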
Description: SANGER: Inhibition of human NCI-H661 cell growth in a cell viability assay.

NCI-H727 = test system: NCI-H727;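 further: growth inhibition of human NCI-H727 cells, read out with a cell viability assay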
Description: SANGER: Inhibition of human NCI-H727 cell growth in a cell viability assay.

NY = test system: NY
Description: SANGER: Inhibition of human NY cell growth in a cell viability assay.

OE33 = test system: OE33;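 further: growth inhibition of human OE33 cells, measured by a cell viability assay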
Description: SANGER: Inhibition of human OE33 cell growth in a cell viability assay.

PC-14 = test system: PC-14;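 further: cell viability assay measuring inhibition of PC-14 cell growth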
Description: SANGER: Inhibition of human PC-14 cell growth in a cell viability assay.

PC-3 = test system: PC-3;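 further: cell viability assay measuring growth inhibition of PC-3 cells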
Description: SANGER: Inhibition of human PC-3 cell growth in a cell viability assay.

RCM-1 = test system: RCM-1;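 further: growth inhibition of the RCM-1 line, determined with a cell viability readout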
Description: SANGER: Inhibition of human RCM-1 cell growth in a cell viability assay.

RMG-I = test system: RMG-I;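 further: growth inhibition of human RMG-I cells, read out with a cell viability assay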
Description: SANGER: Inhibition of human RMG-I cell growth in a cell viability assay.

RO82-W-1 = test system: RO82-W-1;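 further: growth inhibition of human RO82-W-1 cells, measured with a cell viability assay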
Description: SANGER: Inhibition of human RO82-W-1 cell growth in a cell viability assay.

RVH-421 = test system: RVH-421
Description: SANGER: Inhibition of human RVH-421 cell growth in a cell viability assay.

SK-MES-1 = test system: SK-MES-1;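 further: growth inhibition of human SK-MES-1 cells, read out with a cell viability assay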
Description: SANGER: Inhibition of human SK-MES-1 cell growth in a cell viability assay.

SK-OV-3 = test system: SK-OV-3;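 further: growth inhibition of SK-OV-3 human cells, read out with a cell viability assay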
Description: SANGER: Inhibition of human SK-OV-3 cell growth in a cell viability assay.

SW13 = test system: SW13;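 further: IC50 is inhibition of SW13 cell growth, read out with a cell viability assay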
Description: SANGER: Inhibition of human SW13 cell growth in a cell viability assay.

SW1463 = test system: SW1463;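 further: growth inhibition of SW1463 cells, determined with a cell viability assay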
Description: SANGER: Inhibition of human SW1463 cell growth in a cell viability assay.

T47D = test system: T47D;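 further: growth inhibition of human T47D cells, measured with a cell viability assay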
Description: SANGER: Inhibition of human T47D cell growth in a cell viability assay.

A204 = test system: A204;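 further: growth inhibition of human A204 cells, read out with a cell viability assay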
Description: SANGER: Inhibition of human A204 cell growth in a cell viability assay.

AN3-CA = test system: AN3-CA;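 further: growth inhibition of human AN3-CA cells measured by a cell viability assay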
Description: SANGER: Inhibition of human AN3-CA cell growth in a cell viability assay.

ASPC1 = test system: ASPC1;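 further: growth inhibition of AsPC-1 cells, read out with a cell viability assay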
Description: SANGER: Inhibition of human AsPC-1 cell growth in a cell viability assay.

BHY = test system: BHY;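 further: cell growth inhibition read out by a viability assay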
Description: SANGER: Inhibition of human BHY cell growth in a cell viability assay.

CAL-120 = test system: CAL-120;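 further: cell growth inhibition, read out as cell viability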
Description: SANGER: Inhibition of human CAL-120 cell growth in a cell viability assay.

CAL-51 = test system: CAL-51;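 further: human CAL-51 cell line, growth inhibition read out via a cell viability assay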
Description: SANGER: Inhibition of human CAL-51 cell growth in a cell viability assay.

UACC-62 = test system: UACC-62;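 further: growth inhibition of human UACC-62 cells, read out by a cell viability assay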
Description: SANGER: Inhibition of human UACC-62 cell growth in a cell viability assay.

YAPC = test system: YAPC;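 further: growth inhibition of YAPC cells, measured with a cell viability assay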
Description: SANGER: Inhibition of human YAPC cell growth in a cell viability assay.

COLO-679 = test system: COLO-679
Description: SANGER: Inhibition of human COLO-679 cell growth in a cell viability assay.

COLO-680N = test system: COLO-680N;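 further: cell viability assay used to measure inhibition of COLO-680N cell growth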
Description: SANGER: Inhibition of human COLO-680N cell growth in a cell viability assay.

CC[C@]1(O)C[C@@H]2CN(CCc3c([nH]c4ccccc34)[C@@](C(=O)OC)(c3cc4c(cc3OC)N(C)[C@H]3[C@@](O)(C(=O)OC)[C@H](OC(C)=O)[C@]5(CC)C=CCN6CC[C@]43[C@@H]65)C2)C1 [VINBLASTINE]
IC50 (COLO-741): 0.00214 µM
IC50 (Calu-3): > 0.1 µM
IC50 (G-361): > 100 nM
IC50 (GAMG): 19.4 nM
IC50 (H4): 0.00584 µM
IC50 (HCC1806): 0.00063 µM
IC50 (HCC1937): > 0.1 µM
IC50 (HGC-27): 1.01 nM
IC50 (HO-1-N-1): 1.76 nM
IC50 (J82): 68.5 nM
IC50 (KU-19-19): 43.7 nM
IC50 (KYSE-150 cell line): 46.5 nM
IC50 (KYSE-510): 5.87 nM
IC50 (LCLC-97TM1): 5.49 nM
IC50 (LN-405): 12.4 nM
IC50 (MDA-MB-231): 44.6 nM
IC50 (MDA-MB-453): 3.29 nM
IC50 (MKN-7): 76.7 nM
IC50 (NB12): 61.4 nM
IC50 (NCI-H1437): 7.76 nM
IC50 (NCI-H1623): > 0.1 µM
IC50 (NCI-H1693): 78.2 nM
IC50 (NCI-H2452): 9.59 nM
IC50 (NCI-H292): 3.03 nM
IC50 (NCI-H520): 30.1 nM
IC50 (NCI-H661): 8.05 nM
IC50 (NCI-H727): > 0.1 µM
IC50 (NY): > 0.1 µM
IC50 (OE33): 28.6 nM
IC50 (PC-14): 3.53 nM
IC50 (PC-3): 33.4 nM
IC50 (RCM-1): > 0.1 µM
IC50 (RMG-I): > 0.1 µM
IC50 (RO82-W-1): 5.57 nM
IC50 (RVH-421): 7.25 nM
IC50 (SK-MES-1): 8.64 nM
IC50 (SK-OV-3): > 0.1 µM
IC50 (SW13): 5.49 nM
IC50 (SW1463): 69.7 nM
IC50 (T47D): 7.71 nM
IC50 (A204): 8.76 nM
IC50 (AN3-CA): 9.76 nM
IC50 (ASPC1): 13.2 nM
IC50 (BHY): 15.3 nM
IC50 (CAL-120): 87.3 nM
IC50 (CAL-51): 16.4 nM
IC50 (UACC-62): 8.06 nM
IC50 (YAPC): 87 nM
IC50 (COLO-679): > 100 nM
IC50 (COLO-680N): 74.7 nM

C[C@]1(c2nc3c(C(N)=O)cccc3[nH]2)CCCN1 [VELIPARIB]
IC50 (COLO-741): > 5 µM
IC50 (Calu-3): > 5 µM
IC50 (G-361): > 5000 nM
IC50 (GAMG): > 5000 nM
IC50 (H4): > 5 µM
IC50 (HCC1806): > 5 µM
IC50 (HCC1937): > 5 µM
IC50 (HGC-27): > 5000 nM
IC50 (HO-1-N-1): > 5000 nM
IC50 (J82): > 5000 nM
IC50 (KU-19-19): > 5000 nM
IC50 (KYSE-150 cell line): > 5000 nM
IC50 (KYSE-510): > 5000 nM
IC50 (LCLC-97TM1): > 5000 nM
IC50 (LN-405): > 5000 nM
IC50 (MDA-MB-231): > 5000 nM
IC50 (MDA-MB-453): > 5000 nM
IC50 (MKN-7): > 5000 nM
IC50 (NB12): > 5000 nM
IC50 (NCI-H1437): > 5000 nM
IC50 (NCI-H1623): > 5 µM
IC50 (NCI-H1693): > 5000 nM
IC50 (NCI-H2452): > 5000 nM
IC50 (NCI-H292): > 5000 nM
IC50 (NCI-H520): > 5000 nM
IC50 (NCI-H661): > 5000 nM
IC50 (NCI-H727): > 5 µM
IC50 (NY): > 5 µM
IC50 (OE33): > 5000 nM
IC50 (PC-14): > 5000 nM
IC50 (PC-3): > 5000 nM
IC50 (RCM-1): > 5 µM
IC50 (RMG-I): > 5 µM
IC50 (RO82-W-1): > 5000 nM
IC50 (RVH-421): > 5000 nM
IC50 (SK-MES-1): > 5000 nM
IC50 (SK-OV-3): > 5 µM
IC50 (SW13): > 5000 nM
IC50 (SW1463): > 5000 nM
IC50 (T47D): > 5000 nM
IC50 (A204): > 5000 nM
IC50 (AN3-CA): > 5000 nM
IC50 (ASPC1): > 5000 nM
IC50 (BHY): > 5000 nM
IC50 (CAL-120): > 5000 nM
IC50 (CAL-51): > 5000 nM
IC50 (UACC-62): > 5000 nM
IC50 (YAPC): > 5000 nM
IC50 (COLO-679): > 5000 nM
IC50 (COLO-680N): > 5000 nM

CCCS(=O)(=O)Nc1ccc(F)c(C(=O)c2c[nH]c3ncc(Cl)cc23)c1F [PLX-4720]
IC50 (COLO-741): 8.02 µM
IC50 (Calu-3): > 10 µM
IC50 (G-361): 346 nM
IC50 (GAMG): > 10000 nM
IC50 (H4): 6.22 µM
IC50 (HCC1806): 6.82 µM
IC50 (HCC1937): > 10 µM
IC50 (HGC-27): > 10000 nM
IC50 (HO-1-N-1): > 10000 nM
IC50 (J82): > 10000 nM
IC50 (KU-19-19): > 10000 nM
IC50 (KYSE-150 cell line): > 10000 nM
IC50 (KYSE-510): > 10000 nM
IC50 (LCLC-97TM1): > 10000 nM
IC50 (LN-405): > 10000 nM
IC50 (MDA-MB-231): > 10000 nM
IC50 (MDA-MB-453): > 10000 nM
IC50 (MKN-7): > 10000 nM
IC50 (NB12): > 10000 nM
IC50 (NCI-H1437): > 10000 nM
IC50 (NCI-H1623): > 10 µM
IC50 (NCI-H1693): > 10000 nM
IC50 (NCI-H2452): > 10000 nM
IC50 (NCI-H292): > 10000 nM
IC50 (NCI-H520): > 10000 nM
IC50 (NCI-H661): > 10000 nM
IC50 (NCI-H727): > 10 µM
IC50 (NY): > 10 µM
IC50 (OE33): > 10000 nM
IC50 (PC-14): > 10000 nM
IC50 (PC-3): > 10000 nM
IC50 (RCM-1): > 10 µM
IC50 (RMG-I): > 10 µM
IC50 (RO82-W-1): > 10000 nM
IC50 (RVH-421): 868 nM
IC50 (SK-MES-1): > 10000 nM
IC50 (SK-OV-3): > 10 µM
IC50 (SW13): > 10000 nM
IC50 (SW1463): > 10000 nM
IC50 (T47D): > 10000 nM
IC50 (A204): > 10000 nM
IC50 (AN3-CA): > 10000 nM
IC50 (ASPC1): > 10000 nM
IC50 (BHY): > 10000 nM
IC50 (CAL-120): > 10000 nM
IC50 (CAL-51): > 10000 nM
IC50 (UACC-62): > 10000 nM
IC50 (YAPC): > 10000 nM
IC50 (COLO-679): 1100 nM
IC50 (COLO-680N): > 10000 nM
